Data on 48 compounds can be found in patent US11766427B2, “Repurposing compounds for the treatment of infections and for modulating the composition of the gut microbiome” (EUROPEAN MOLECULAR BIOLOGY LABORATORY, priority 2018, dated 2023).

The structures appear in SMILES notation. Counter-ions that a name gives are not always drawn.

Experiment [1] relates to 40 different bacterial species. The experiment can be described thus: Prestwick Chemical Library growth screen, whole panel (hits, anticommensal activity). It counts as cell-based, human gut isolates. As to conditions: for anticommensal activity in the screen (in words): 20 μM, 40 strains, FDR<0.01.
Experiment [2] has as its system Clostridium difficile (NT5083). The experiment can be described thus: Prestwick Chemical Library growth screen (OD578 growth curves, AUC). As to conditions: screen at 20 μM. It counts as cell-based.
In experiment [3] the test system is Clostridium perfringens (NT5032). Type of experiment: cell-based. As to conditions: screen at 20 μM.
Experiment [4] relates to Bacteroides fragilis (ET) (NT5033). Type of experiment: cell-based, Bacteroides fragilis enterotoxigenic. Particulars: screen at 20 μM.
Setting [5] is: number of the 40 strains inhibited at 20 μM (FDR<0.01).
The mark [6] stands for this setting: number of species inhibited of 40 different bacterial species tested.
[7] abbreviates: number of the 40 bacterial species tested whose growth is inhibited, Table 7 broad-spectrum compounds.

In experiment [1] (setting [5]), `CC(C)(O)c1ccccc1CC[C@@H](SCC1(CC(=O)O)CC1)c1cccc(/C=C/c2ccc3ccc(Cl)cc3n2)c1` [Montelukast] showed a n_hit of 8. Turning to `CCOC(=O)C1=C(C)NC(C)=C(C(=O)OCC)C1c1ccccc1/C=C/C(=O)OC(C)(C)C` [Lacidipine], the n_hit in experiment [1] (setting [5]) is 6. Moreover, the “inhibition of the growth of C. difficile bacteria (in words)” value in experiment [2] is reported as “effective in inhibiting the growth”. On to `O=C1c2ccccc2C(=O)C1c1ccccc1` [Phenindione], for which, in experiment [3], the “selective inhibition of the growth of C. perfringens bacteria (in words)” value is “selectively inhibiting the growth”. The same compound displayed a n_hit in experiment [1] (setting [6]) of 1. `CCOC1O[C@H]([C@@H](COCc2ccccc2)OCc2ccccc2)[C@H](OCc2ccccc2)[C@H]1O` (stereo partly drawn) [Tribenoside] had a n_hit in experiment [1] (setting [5]) of 1. Besides, the “inhibition of the growth of C. difficile bacteria (in words)” value in experiment [2] is listed as “effective in inhibiting the growth”. As to `O=C1Nc2ccc(Cl)cc2[C@@](C#CC2CC2)(C(F)(F)F)O1` [efavirenz], in experiment [1], the “anticommensal activity in the screen (in words)” value is listed as “anticommensal activity”. For the compound `O=c1[nH]c(=O)n([C@H]2C[C@H](O)[C@@H](CO)O2)cc1C(F)(F)F` [trifluridine], in experiment [1], the “anticommensal activity in the screen (in words)” value is recorded as “anticommensal activity”. `CCN(CC)C(C)CN1c2ccccc2Sc2ccccc21` (stereo not drawn) [Ethopropazine hydrochloride]: the n_hit in experiment [1] (setting [7]) turned out to be 11. `CCOC(=O)N1CCC(=C2c3ccc(Cl)cc3CCc3cccnc32)CC1` [Loratadine] gave a n_hit in experiment [1] (setting [7]) of 15.

Take `Cc1cc(-n2c(=O)[nH]c(=O)n(C)c2=O)ccc1Oc1ccc(SC(F)(F)F)cc1` [Toltrazuril]: in experiment [4], the “selective inhibition of the growth of an enterotoxigenic strain of Bacteroides fragilis (in words)” value is “selectively inhibiting the growth”. Moreover, in experiment [1] (setting [6]), the n_hit is listed as 7. On to `O=C(O)Cc1sc(-c2ccccc2)nc1-c1ccc(Cl)cc1` [Fentiazac], for which the n_hit in experiment [1] (setting [5]) is 1. The “inhibition of the growth of C. difficile bacteria (in words)” value in experiment [2] was “effective in inhibiting the growth”. Turning to `COCCOC(=O)C1=C(C)NC(C)=C(C(=O)OC/C=C/c2ccccc2)C1c1cccc([N+](=O)[O-])c1` (stereo not drawn) [Cilnidipine], the “selective inhibition of the growth of an enterotoxigenic strain of Bacteroides fragilis (in words)” value in experiment [4] is “selectively inhibiting the growth”. For the same compound, the n_hit in experiment [1] (setting [5]) came to 5. Besides, the “inhibition of the growth of C. difficile bacteria (in words)” value in experiment [2] was “effective in inhibiting the growth”. `CC#C[C@]1(O)CC[C@H]2[C@@H]3CCC4=CC(=O)CCC4=C3[C@@H](c3ccc(N(C)C)cc3)C[C@@]21C` [Mifepristone] had a n_hit in experiment [1] (setting [5]) of 3. The “inhibition of the growth of C. difficile bacteria (in words)” value in experiment [2] was “effective in inhibiting the growth”. In experiment [1] (setting [6]), `C[C@@H]1C[C@H]2[C@@H]3CCC4=CC(=O)C=C[C@]4(C)[C@@]3(Cl)[C@@H](O)C[C@]2(C)[C@@]1(OC(=O)c1ccco1)C(=O)CCl` [Mometasone furoate] displayed a n_hit of 1. Turning to `C[C@@H](O[C@H]1OCCN(Cc2n[nH]c(=O)[nH]2)[C@H]1c1ccc(F)cc1)c1cc(C(F)(F)F)cc(C(F)(F)F)c1` [Aprepitant], in experiment [1] (setting [7]), the n_hit came out at 10. As to `O=C1CCc2ccc(OCCCCN3CCN(c4cccc(Cl)c4Cl)CC3)cc2N1` [Aripiprazole], the n_hit in experiment [1] (setting [6]) was 3. Regarding `CCOC(=O)/C=C(C)/C=C/C=C(C)/C=C/c1c(C)cc(OC)c(C)c1C` [Etretinate], the “selective inhibition of the growth of C. perfringens bacteria (in words)” value in experiment [3] is “selectively inhibiting the growth”. This compound had a n_hit in experiment [1] (setting [6]) of 1. The compound `COc1ccc2c(c1)C(=O)N(CCc1ccc(S(=O)(=O)NC(=O)NC3CCCCC3)cc1)C(=O)C2(C)C` [Gliquidone] displayed a n_hit in experiment [1] (setting [5]) of 1. For the same compound, the “inhibition of the growth of C. difficile bacteria (in words)” value in experiment [2] is given as “effective in inhibiting the growth”.

For the compound `Cn1cnc([N+](=O)[O-])c1Sc1ncnc2nc[nH]c12` [Azathioprine], the n_hit in experiment [1] (setting [5]) is given as 7. The “inhibition of the growth of C. difficile bacteria (in words)” value in experiment [2] is reported as “effective in inhibiting the growth”. The compound `CCCCC(=O)O[C@H]1CC[C@H]2[C@@H]3CCc4cc(O)ccc4[C@H]3CC[C@]12C` [Estradiol Valerate] yielded a n_hit in experiment [1] (setting [7]) of 11. Same read-out and setting: in the case of `O=C(O)Cc1cc(I)c(Oc2ccc(O)c(I)c2)c(I)c1` [Tiratricol] it was 14. For the compound `Cc1cccc(N(C)C(=S)Oc2ccc3ccccc3c2)c1` [Tolnaftate], in experiment [4], the “selective inhibition of the growth of an enterotoxigenic strain of Bacteroides fragilis (in words)” value was “selectively inhibiting the growth”. This compound had a n_hit in experiment [1] (setting [6]) of 5.

As for `Cc1c(C)c2c(c(C)c1O)CCC(C)(COc1ccc(CC3SC(=O)NC3=O)cc1)O2` (stereo not drawn) [Troglitazone], the n_hit in experiment [1] (setting [7]) stood at 13.

In experiment [1] (setting [5]), `Cc1cccc(CN2CCN(C(c3ccccc3)c3ccc(Cl)cc3)CC2)c1` (stereo not drawn) [Meclozine dihydrochloride] registered a n_hit of 8. Moreover, in experiment [2], the “inhibition of the growth of C. difficile bacteria (in words)” value is recorded as “effective in inhibiting the growth”. In experiment [1] (setting [5]), `CC(NCCC(c1ccccc1)c1ccccc1)c1ccccc1` (stereo not drawn) [Fendiline hydrochloride] yielded a n_hit of 8. For the same compound, in experiment [2], the “inhibition of the growth of C. difficile bacteria (in words)” value was “effective in inhibiting the growth”.

As to `O=c1oc2ccccc2c(O)c1Cc1c(O)c2ccccc2oc1=O` [Dicumarol], the n_hit in experiment [1] (setting [7]) is on record as 10.

Turning to `O=C(O)c1ccccc1Nc1cccc(C(F)(F)F)c1` [Flufenamic acid], the n_hit in experiment [1] (setting [6]) was found to be 4. For `CN(C)CCCN1c2ccccc2Sc2ccc(Cl)cc21` [Chlorpromazine hydrochloride], in experiment [3], the “selective inhibition of the growth of C. perfringens bacteria (in words)” value is “selectively inhibiting the growth”. For the same compound, the n_hit in experiment [1] (setting [6]) was 6.

`COC1=C(OC)C(=O)C(CCCCCCCCCCO)=C(C)C1=O` [Idebenone]: the “selective inhibition of the growth of C. perfringens bacteria (in words)” value in experiment [3] was “selectively inhibiting the growth”. The same compound showed a n_hit in experiment [1] (setting [6]) of 3. `Nc1nc2ncc(CNc3ccc(C(=O)N[C@@H](CCC(=O)O)C(=O)O)cc3)nc2c(=O)[nH]1` [Folic acid] had a n_hit in experiment [1] (setting [6]) of 2.

`CC(C)COCC(CN(Cc1ccccc1)c1ccccc1)N1CCCC1` (stereo not drawn) [Bepridil hydrochloride] showed a n_hit in experiment [1] (setting [7]) of 14.

`COc1ccc(CCN2CCC(Nc3nc4ccccc4n3Cc3ccc(F)cc3)CC2)cc1` [Astemizole] came in with a n_hit in experiment [1] (setting [7]) of 10. `CCOC(=O)C1=C(COCCN)NC(C)=C(C(=O)OC)C1c1ccccc1Cl` (stereo not drawn) [Amlodipine] registered a n_hit in experiment [1] (setting [5]) of 2. Turning to `CCCCc1oc2ccccc2c1C(=O)c1cc(I)c(OCCN(CC)CC)c(I)c1` [Amiodarone hydrochloride], the n_hit in experiment [1] (setting [7]) is recorded as 10.

For `C=C1/C(=C\C=C2/CCC[C@]3(C)[C@@H]([C@H](C)CCCC(C)C)CC[C@@H]23)C[C@@H](O)C[C@@H]1O` [Alfacalcidol], in experiment [3], the “selective inhibition of the growth of C. perfringens bacteria (in words)” value is given as “selectively inhibiting the growth”. In addition, the n_hit in experiment [1] (setting [6]) was 7. `CSc1ccc2c(c1)C(N1CCN(C)CC1)Cc1ccccc1S2.O=C(O)/C=C\C(=O)O` (stereo not drawn) [Methiothepin maleate] had a n_hit in experiment [1] (setting [7]) of 10. As for `CC1(C)[C@@H](OC(=O)CCC(=O)O)CC[C@]2(C)[C@H]3C(=O)C=C4[C@@H]5C[C@@](C)(C(=O)O)CC[C@]5(C)CC[C@@]4(C)[C@]3(C)CC[C@@H]12` [Carbenoxolone disodium salt], the n_hit in experiment [1] (setting [5]) worked out at 2. The “inhibition of the growth of C. difficile bacteria (in words)” value in experiment [2] was “effective in inhibiting the growth”. As to `Nc1ccn([C@@H]2O[C@H](CO)[C@@H](O)C2(F)F)c(=O)n1` [Gemcitabine], in experiment [3], the “selective inhibition of the growth of C. perfringens bacteria (in words)” value is reported as “selectively inhibiting the growth”. The compound also came in with a n_hit in experiment [1] (setting [6]) of 2. In experiment [1] (setting [7]), `Clc1ccc(Cn2c(CN3CCCC3)nc3ccccc32)cc1` [Clemizole hydrochloride] showed a n_hit of 15.

In experiment [1] (setting [5]), `CCCc1nc2c(C)cc(-c3nc4ccccc4n3C)cc2n1Cc1ccc(-c2ccccc2C(=O)O)cc1` [Telmisartan] showed a n_hit of 4. Moreover, the “inhibition of the growth of C. difficile bacteria (in words)” value in experiment [2] is given as “effective in inhibiting the growth”. Turning to `C[C@H]1O[C@H](O[C@H]2[C@H](O)[C@@H](O)[C@@H](O[C@H]3[C@H](O)[C@@H](O)C(O)O[C@@H]3CO)O[C@@H]2CO)[C@H](O)[C@@H](O)[C@@H]1N[C@H]1C=C(CO)[C@@H](O)[C@H](O)[C@H]1O` (stereo partly drawn) [Acarbose], the n_hit in experiment [1] (setting [6]) was 6.

The compound `N[C@@H](Cc1cc(I)c(Oc2cc(I)c(O)c(I)c2)c(I)c1)C(=O)O` [Thyroxine (L)] came in with a n_hit in experiment [1] (setting [6]) of 3. `CN1CCCC(CC2c3ccccc3Sc3ccccc32)C1` (stereo not drawn) [Metixene hydrochloride]: the “selective inhibition of the growth of an enterotoxigenic strain of Bacteroides fragilis (in words)” value in experiment [4] is listed as “selectively inhibiting the growth”. The n_hit in experiment [1] (setting [6]) is 9. In experiment [1] (setting [5]), `S=c1nc[nH]c2nc[nH]c12` [Mercaptopurine] came in with a n_hit of 4. Moreover, the “inhibition of the growth of C. difficile bacteria (in words)” value in experiment [2] is “effective in inhibiting the growth”. With `O=C1c2c(O)cccc2Cc2cccc(O)c21` [Anthralin], in experiment [1] (setting [7]), the n_hit is listed as 11. Regarding `CC(=O)O[C@H]1C(=O)[C@@]2(C)[C@H]([C@H](OC(=O)c3ccccc3)[C@]3(O)C[C@H](OC(=O)[C@H](O)[C@@H](NC(=O)c4ccccc4)c4ccccc4)C(C)=C1C3(C)C)[C@]1(OC(C)=O)CO[C@@H]1C[C@@H]2O` [Paclitaxel], the “selective inhibition of the growth of C. perfringens bacteria (in words)” value in experiment [3] is “selectively inhibiting the growth”. Also, the n_hit in experiment [1] (setting [6]) was 1. `Nc1ncn(C2OC(CO)C(O)C2O)c(=O)n1` (stereo not drawn) [Azacytidine-5]: in experiment [3], the “selective inhibition of the growth of C. perfringens bacteria (in words)” value is “selectively inhibiting the growth”. In addition, the n_hit in experiment [1] (setting [6]) was determined as 1. In the case of `C=C(CC)C(=O)c1ccc(OCC(=O)O)c(Cl)c1Cl` [Ethacrynic acid], in experiment [3], the “selective inhibition of the growth of C. perfringens bacteria (in words)” value is “selectively inhibiting the growth”. For the same compound, in experiment [4], the “selective inhibition of the growth of an enterotoxigenic strain of Bacteroides fragilis (in words)” value was “selectively inhibiting the growth”. The compound further had a n_hit in experiment [1] (setting [6]) of 6. Turning to `CNCCCC1c2ccccc2C=Cc2ccccc21` [Protriptyline hydrochloride], the “selective inhibition of the growth of an enterotoxigenic strain of Bacteroides fragilis (in words)” value in experiment [4] is “selectively inhibiting the growth”. In experiment [1] (setting [6]), this compound showed a n_hit of 8.
